Like-named read-outs stand apart in the source and are kept apart here.
Legend:
HEK293 cells = assay: RSK signaling immunoblot in HEK293 cells; assay type: cell-based, human
Protocol: HEK293 cells (Invitrogen, R75007) were seeded at a density of 500,000 cells per well in six-well cell culture plates (Corning Incorporated Costar #3516) in Dulbecco’s modified Eagle medium (DMEM) high-glucose + GlutaMAX Supplement, pyruvate (Thermo Fisher Scientific, catalog no. 31966-021) containing penicillin G (100 U/ml), streptomycin (100 μg/ml), and 10% (v/v) FBS. Once attached, the next day, the media were changed to serum-free and the cells were starved for 16 hours followed by compound treatment with BAY-3827, BI-D1870 (MedChemExpress, #HY-10510) ± 10 μM MK-2206 dihydrochloride (MedChemExpress, #HY-10358) with 30 min incubation at 37°C followed by coincubation with […] (MedChemExpress, #HY-18739) or vehicle for additional 30 min with final assay DMSO concentration of 0.13%. All cell lines used here were tested monthly for mycoplasma and tested negative.
Following compound treatment, the cells were washed with room temperature PBS and lysed on ice with the addition of lysis buffer [50 mM tris-HCl (pH 7.5), 150 mM NaCl, 1 mM EDTA, 1 mM EGTA, 0.27 M sucrose, 1% w/v Triton X-100, 20 mM glycerol-2 phosphate disodium, 50 mM NaF, and 5 mM Na4P2O7.10 H2O] containing proteases and phosphatase inhibitors [0.5 mM phenylmethylsulfonyl fluoride (PMSF), 1 mM benzamidine HCl, leupeptin (1 μg/ml), pepstatin A (1 μg/ml), 1 μM microcystin-LR, 1 mM Na3VO4, and 1 mM DTT]. Lysates were centrifuged at 10,000g, 4°C for 10 min, and protein concentration of the supernatant was determined with the Pierce Bradford Protein Assay Kit (Thermo Fisher Scientific, #23200) and read on the Hidex Plate Reader (software version 0.5.64.0). Samples were prepared in Laemmli sample buffer (tris 200 mM, 8% SDS, EDTA 2 mM, and 40% glycerol) supplemented with 10% DTT and boiled for 5 min at 100°C. Ten micrograms of protein per sample was run on a Criterion tris-glycine polyacrylamide gel (Bio-Rad, #5678095) and transferred to a nitrocellulose membrane. For cell signaling experiments in HEK293 cells, the samples were run on a Criterion TGX stain-free precast gel (Bio-Rad, catalog no. 5678085) with transfer to a polyvinylidene difluoride membrane performed in Bio-Rad Criterion blotter (#1704071) using tris-glycine transfer buffer (Bio-Rad, #1610734) following the manufacturer’s instructions. The membranes were probed at 4°C overnight in a 4% BSA TBS-T solution containing 0.02% sodium azide with the following antibodies where appropriate: Phospho-ACC (Ser^79) (1:1000, Cell Signaling Technology, #3661S), ACC (C83B10) (1:1000, Cell Signaling Technology, #3676S), phospho-Raptor (Ser^792) (1:1000, Cell Signaling Technology, #2083S), Raptor (24C12) (1:1000, Cell Signaling Technology, #2280S), GSK3αβ (1:2000, Sigma-Aldrich, #04-903), phospho-GSK3αβ (Ser^21/9) (D17D2) (1:1000, Cell Signaling Technology, #8566S), ERK1/2 (137F5) (1:1000, Cell Signaling Technology, #4695), phospho-ERK1/2 (Thr^202/Tyr^204) (D13.14.4E) (1:1000, Cell Signaling Technology, #4370), phospho-AMPKα (Thr^172) (40H9) (1:1000, Cell Signaling Technology, #2535S), AMPKα (1:1000, Cell Signaling Technology, #2532S), anti–glyceraldehyde-3-phosphate dehydrogenase antibody (1:5000, Cell Signaling Technology, #G8795), and vinculin (1:1000, Cell Signaling Technology, #13901). Membranes were scanned using the Odyssey Fc LiCor system (exposure time, 30 s) with densitometry analysis performed using LiCor Image Studio Lite normalizing to control loading protein. Figures were made using GraphPad Prism v10.

[1] = test system: AMPKα1α2−/− DKO primary hepatocytes; assay: Lipogenesis assay ([14C]-acetate incorporation into fatty acids); assay type: cell-based, mouse
Protocol: (§1) Mouse hepatocytes were isolated by collagenase perfusion as previously described ([47]). Hepatocytes were seeded in medium Eagle-199 (MEM-199) (#41150, Thermo Fisher Scientific) containing penicillin G (100 U/ml), streptomycin (100 μg/ml), and 10% (v/v) fetal bovine serum (FBS). Hepatocytes were left for attachment (3 to 4 hours) and serum-starved overnight at 37°C with 5% CO2 in MEM-199 supplemented with penicillin G (100 U/ml), streptomycin (100 μg/ml), 10 nM insulin, and 100 nM dexamethasone. […] Cells were then harvested in 0.5 ml of phosphate-buffered saline (PBS), transferred into 1 ml of 40% KOH and 2 ml of methanol followed by 1-hour incubation at 80°C. Lipids were […] by acidifying the samples in 37% HCl and extracted with petroleum ether. Extracts were allowed to evaporate to dryness and then dissolved in Ultima Gold scintillation fluid for determination of [^14C]-acetate incorporation into lipids.

[2] = test system: AMPKα1α2+/+ control primary hepatocytes; assay: as above; assay type: cell-based, mouse
Protocol: as §1

[3] = test system: pThr172-AMPKα in U2OS cells; assay: HTRF assay of Thr172-AMPKα phosphorylation in U2OS cells; assay type: cell-based, human; conditions: 10 μM
Protocol: (§2) Human osteosarcoma U2OS WT cells were obtained from John Rouse (MRC Protein Phosphorylation and Ubiquitylation Unit, University of Dundee) and were cultured in DMEM high glucose + GlutaMAX Supplement, pyruvate (Thermo Fisher Scientific, catalog no. 31966-021) containing penicillin G (100 U/ml), streptomycin (100 μg/ml), and 10% (v/v) FBS seeding with 50,000 cells per well in a 50-μl volume in culture 96-well cell culture plates (Corning Incorporated costar, #3599). The next day, the media were changed to 50 μl of serum-free media, and 50 μl of serum-free media containing BAY-3827 or BAY-974 was dispensed and left to incubate at 37°C for 30 min. […] HTRF assays using either phospho-Ser^79-ACC1 kit (Revvity, #64ACCPEG) or phospho-Thr^172-AMPK kit (Revvity, #64AMPKPEG) were performed in triplicate in HTRF 96-well low volume white plates (Revvity, #66PL96001) following manufacturer’s instructions. Sealed plates incubated overnight in darkness conditions were scanned at room temperature in Multimode Plate Reader EnVision (PerkinElmer) machine following HTRF setup recommendations for EnVision (Revvity), equipped with a top mirror LANCE/DELFIA single mirror (#412), a UV2 (TRF) 320 excitation filter (#111), emission filter APC 665 (#205), and second emission filter Europium 615 (#203), with a 2000-μs cycle and 60-μs delay, with the number of flashes set to 100 as well as for the 2nd detector. Results were viewed in EnVision Manager software (version 1.13.3009.1401) where 665/615 ratios were calculated, and data were normalized to control condition as %. All assay ratios between control lysate signal/nonspecific signal were greater than 2 as expected of a successful assay following the manufacturer’s instructions. Data were visualized in GraphPad Prism v10.

[4] = test system: pSer79-ACC1 in U2OS cells; assay: HTRF assay of Ser79-ACC1 phosphorylation in U2OS cells; assay type: cell-based, human; conditions: 10 μM
Protocol: as §2

RSK1 = test system: RSK1; parameters: method as in PMID 20439741; conditions: cited from earlier work
AMPK [5] = test system: AMPK; parameters: method as in PMID 20439741; conditions: cited from earlier work
RSK2 = test system: RSK2; parameters: method as in PMID 20439741; conditions: cited from earlier work
AMPK [6] = test system: AMPK; parameters: method as in PMID 29695504; conditions: 20 μM ATP; read-out: median inhibitory concentration (IC50); cited from earlier work
119 kinases = test system: 119 kinases; parameters: method as in PMID 21740966; conditions: of 119 kinases, 1 μM; cited from earlier work

## CC(C)CCN1c2nc(Nc3cc(F)c(O)c(F)c3)ncc2N(C)C(=O)C1C (stereo not drawn) [BI-D1870]
HEK293 cells; 10 μM, in the presence of MK-2206 (10 μM)
  PMA-stimulated pGSK3αβ (surrogate of RSK activity): inhibited to the same extent
HEK293 cells; serum-starved HEK293, 1 and 10 μM
  ACC1 phosphorylation: no effect

## NC1(c2ccc(-c3nc4ccn5c(=O)[nH]nc5c4cc3-c3ccccc3)cc2)CCC1 [MK-2206]
HEK293 cells; 10 μM
  basal pGSK3αβ: reduced

## O[C@@H]1CO[C@H]2[C@@H]1OC[C@H]2Oc1nc2nc(-c3ccc(-c4ccccc4)cc3)c(Cl)cc2[nH]1 [MK-8722]
[1]
  effect on lipogenesis: no effect
[2]; compound alone, 10 μM
  suppression of lipogenesis: > 80%
[3]
  pThr172-AMPK versus vehicle: significant increase
[4]
  pSer79-ACC1 versus vehicle: significant increase

## Cc1nc(Nc2n[nH]c3c2CN(C(=O)N[C@H](CN(C)C)c2ccccc2)C3(C)C)c2sccc2n1 [PF-03758309]
RSK1
  IC50: 2 nM
AMPK [5]
  IC50: 1 nM
RSK2
  IC50: 2 nM

## CCCCCCCCCCCCCC(=O)O[C@@H]1[C@@H](C)[C@@]2(O)[C@@H](C=C(CO)C[C@]3(O)C(=O)C(C)=C[C@@H]23)[C@@H]2C(C)(C)[C@]12OC(C)=O [PMA, phorbol 12-myristate 13-acetate]
HEK293 cells; 0.1 μM, MK-2206–treated conditions
  pERK1/2 and pGSK3αβ levels: robustly increased

## CNC(=O)c1ccccc1Oc1nc(Nc2cc(OC)c(OC)c(OC)c2)ncc1Br [SBI-0206965]
AMPK [6]
  IC50: 160 nM

## c1cc(-c2cnn3cc(-c4ccc(OCCN5CCCCC5)cc4)cnc23)ccn1 [compound C]
[2]; 25 μM, + MK-8722 (10 μM)
  restoration of MK-8722–inhibited lipogenesis: 10%
119 kinases
  number of kinases inhibited more potently than AMPK: 34
AMPK [6]
  IC50: […]

From publication PMC12372887, “Mechanism and cellular actions of the potent AMPK inhibitor BAY-3827” (Science Advances, 2025)
